Results as given in publication PMC11589570, “Critical assessment of LC3/GABARAP ligands used for degrader development and ligandability of LC3/GABARAP binding pockets” (Nature Communications, 2024).
Where “and” joins values, the source holds several entries; their conditions need not be identical. Equal entries are not always repeated.

Columns and labels:
LC3B = LC3B (Homo sapiens, UniProt Q9GZQ8); test: FP assay with Cy5-labelled p62 LIR tracer (protein titration and tracer displacement); type: binding; conditions: for normalized FP signal, p62 LIR tracer displacement: LC3B; for compound titration LC3B (displacement curve, FP signal): two replicate columns per compound
LC3A [1] = biological target: T1, LC3A (Homo sapiens, UniProt Q9H492); test: Isothermal titration calorimetry (ITC); type: binding; conditions: LC3A
Text: To minimize nonspecific dilution heat effects, DMSO concentrations in the protein and compound samples were matched. […] For this protocol, the chamber was pre-equilibrated with the protein, and the test compounds were titrated while continuously measuring the rate of exothermic heat evolution. The heat of binding was integrated, corrected, and fitted to an independent single-binding site model based on the manufacturer’s instructions, from which thermodynamic parameters (ΔH and TΔS), equilibrium association and dissociation constants (KA and KD, respectively), and stoichiometry (n) were calculated using TA Instruments NanoAnalyze software.

LC3A [2] = biological target: T1, LC3A; test: FP assay with Cy5-labelled p62 LIR tracer (protein titration and tracer displacement); type: binding; conditions: two replicate columns per compound
RPE1 cells = test: Cell growth assay (IncuCyte confluence over 72 h); type: cell-based; conditions: listed as KT1
Protocol: Cell growth assay: Cell confluence (phase) from RPE1 (hTERT RPE-1, ATCC CLR_4000) or U2OS (ATCC, HTB-96) cell lines were monitored over time with the IncuCyte S3 (Sartiorius, Germany) in 384-well plates in 50 ul DMEM media, supplemented with 10% Fetal Bovine Serum (FBS) 1% penicillin/Streptomycin and incubated 24 h before treatment. Experiment was performed as described in Cano-Franco et al.. 50 μl of media containing either 2× final concentration of indicated compounds in or control compounds (final conc.: 0.1% DMSO, 250 nM Torin1, 200 ng/mL Bafilomycin) were added and images were taken every two hours over 72 h. Cell confluence is represented as % of area covered by cells. Each data point represents the average ratio or confluence obtained from three individual wells of the plate.

[3] = log10 concentration [M] -3.82391
[4] = log10 concentration [M] -4.1549
[5] = log10 concentration [M] -4.60206
[6] = log10 concentration [M] -5.30103
[7] = log10 concentration [M] -5.69897
[8] = log10 concentration [M] -6.22185
[9] = log10 concentration [M] -6.69897
[10] = log10 concentration [M] -7.30103
[11] = log10 concentration [M] -7.79588
[12] = log10 concentration [M] -8.08092

Structure (SMILES): Cc1ccc(C)c(S(=O)(=O)Nc2cc(SCC(=O)O)c(O)c3ccccc23)c1 [compound 8]
- normalized FP signal, p62 LIR tracer displacement (LC3B; [3]): 74.4737 and 78.6842
- normalized FP signal, p62 LIR tracer displacement (LC3B; [4]): 94.4737 and 95.2632
- normalized FP signal, p62 LIR tracer displacement (LC3B; [5]): 95 and 102.105
- normalized FP signal, p62 LIR tracer displacement (LC3B; log10 concentration [M] -5): 92.8947 and 101.053
- normalized FP signal, p62 LIR tracer displacement (LC3B; [6]): 97.1053 and 100
- normalized FP signal, p62 LIR tracer displacement (LC3B; [7]): 93.6842 and 95.5263
- normalized FP signal, p62 LIR tracer displacement (LC3B; [8]): 100 and 92.1053
- normalized FP signal, p62 LIR tracer displacement (LC3B; [9]): 96.8421 and 99.4737
- normalized FP signal, p62 LIR tracer displacement (LC3B; [10]): 97.8947 and 102.368
- normalized FP signal, p62 LIR tracer displacement (LC3B; [11]): 96.5789 and 100
- normalized FP signal, p62 LIR tracer displacement (LC3B; [12]): 100.789 and 96.5789
- compound titration LC3B (displacement curve, FP signal) (LC3B; [3]): 74.4737 and 78.6842
- compound titration LC3B (displacement curve, FP signal) (LC3B; [4]): 94.4737 and 95.2632
- compound titration LC3B (displacement curve, FP signal) (LC3B; [5]): 95 and 102.105
- compound titration LC3B (displacement curve, FP signal) (LC3B; log10 concentration [M] -5): 92.8947 and 101.053
- compound titration LC3B (displacement curve, FP signal) (LC3B; [6]): 97.1053 and 100
- compound titration LC3B (displacement curve, FP signal) (LC3B; [7]): 93.6842 and 95.5263
- compound titration LC3B (displacement curve, FP signal) (LC3B; [8]): 100 and 92.1053
- compound titration LC3B (displacement curve, FP signal) (LC3B; [9]): 96.8421 and 99.4737
- compound titration LC3B (displacement curve, FP signal) (LC3B; [10]): 97.8947 and 102.368
- compound titration LC3B (displacement curve, FP signal) (LC3B; [11]): 96.5789 and 100
- compound titration LC3B (displacement curve, FP signal) (LC3B; [12]): 100.789 and 96.5789
- outcome of ITC titration (LC3A [1]): induced protein precipitation
- compound titration LC3A (displacement curve, FP signal) (LC3A [2]; [3]): 97.6316 and 96.3158
- compound titration LC3A (displacement curve, FP signal) (LC3A [2]; [4]): 102.368 and 100.263
- compound titration LC3A (displacement curve, FP signal) (LC3A [2]; [5]): 93.6842 and 106.579
- compound titration LC3A (displacement curve, FP signal) (LC3A [2]; log10 concentration [M] -5): 101.842 and 99.2105
- compound titration LC3A (displacement curve, FP signal) (LC3A [2]; [6]): 105 and 102.368
- compound titration LC3A (displacement curve, FP signal) (LC3A [2]; [7]): 101.842 and 94.2105
- compound titration LC3A (displacement curve, FP signal) (LC3A [2]; [8]): 98.9474 and 95.2632
- compound titration LC3A (displacement curve, FP signal) (LC3A [2]; [9]): 98.4211
- compound titration LC3A (displacement curve, FP signal) (LC3A [2]; [10]): 101.842 and 96.5789
- compound titration LC3A (displacement curve, FP signal) (LC3A [2]; [11]): 97.8947 and 91.3158
- compound titration LC3A (displacement curve, FP signal) (LC3A [2]; [12]): 102.105 and 89.4737
- RPE1 cell growth (RPE1 cells; 100 nM, 0 h): 18 and 24 and 13
- RPE1 cell growth (RPE1 cells; 100 nM, 6 h): 23 and 30 and 15
- RPE1 cell growth (RPE1 cells; 100 nM, 8 h): 25 and 30 and 16
- RPE1 cell growth (RPE1 cells; 100 nM, 10 h): 25 and 32 and 17
- RPE1 cell growth (RPE1 cells; 100 nM, 12 h): 24 and 34 and 18
- RPE1 cell growth (RPE1 cells; 1 uM, 0 h): 19 and 20 and 26
- RPE1 cell growth (RPE1 cells; 1 uM, 2 h): 20 and 28
- RPE1 cell growth (RPE1 cells; 1 uM, 4 h): 20 and 25 and 32
- RPE1 cell growth (RPE1 cells; 1 uM, 6 h): 21 and 26 and 32
- RPE1 cell growth (RPE1 cells; 1 uM, 8 h): 22 and 29 and 35
- RPE1 cell growth (RPE1 cells; 1 uM, 10 h): 25 and 29 and 37
- RPE1 cell growth (RPE1 cells; 1 uM, 12 h): 27 and 32 and 38
- RPE1 cell growth (RPE1 cells; 1 uM, 14 h): 29
- RPE1 cell growth (RPE1 cells; 3 uM, 0 h): 20 and 28 and 21
- RPE1 cell growth (RPE1 cells; 3 uM, 2 h): 23 and 30 and 21
- RPE1 cell growth (RPE1 cells; 3 uM, 4 h): 25 and 34 and 21
- RPE1 cell growth (RPE1 cells; 3 uM, 6 h): 25 and 34 and 23
- RPE1 cell growth (RPE1 cells; 3 uM, 8 h): 29 and 35 and 24
- RPE1 cell growth (RPE1 cells; 3 uM, 10 h): 29 and 37 and 26
- RPE1 cell growth (RPE1 cells; 3 uM, 12 h): 30 and 38 and 28
- RPE1 cell growth (RPE1 cells; 3 uM, 14 h): 32 and 42 and 30
- RPE1 cell growth (RPE1 cells; 5 uM, 0 h): 17 and 27 and 20
- RPE1 cell growth (RPE1 cells; 5 uM, 2 h): 20 and 30
- RPE1 cell growth (RPE1 cells; 5 uM, 4 h): 22 and 33 and 21
- RPE1 cell growth (RPE1 cells; 5 uM, 6 h): 22 and 36
- RPE1 cell growth (RPE1 cells; 5 uM, 8 h): 26 and 37 and 23
- RPE1 cell growth (RPE1 cells; 5 uM, 10 h): 25 and 39
- RPE1 cell growth (RPE1 cells; 5 uM, 12 h): 28 and 40 and 27
- RPE1 cell growth (RPE1 cells; 5 uM, 14 h): 29 and 45
- RPE1 cell growth (RPE1 cells; 10 uM, 0 h): 17 and 22 and 19
- RPE1 cell growth (RPE1 cells; 10 uM, 2 h): 20 and 23
- RPE1 cell growth (RPE1 cells; 10 uM, 4 h): 23 and 26 and 20
- RPE1 cell growth (RPE1 cells; 10 uM, 6 h): 24 and 31 and 22
- RPE1 cell growth (RPE1 cells; 10 uM, 8 h): 25 and 29 and 23
- RPE1 cell growth (RPE1 cells; 10 uM, 10 h): 26 and 28 and 25
- RPE1 cell growth (RPE1 cells; 10 uM, 12 h): 28 and 32 and 27
